Converted amounts (≈) assume the structure as drawn. Square brackets hold non-standard residues; d marks the D form. Peptide text beside a SMILES is read from it. ξ: configuration not given here. Oic(3aξ,7aξ) = O=C(O)[C@@H]1CC2CCCCC2N1; Tiq1c(1S) = O=C(O)[C@H]1NCCc2ccccc21
What was measured:
Acinetobacter baumannii [1] = assay: Antimicrobial activity against Acinetobacter baumannii WRAIR; format: functional
[2] = Binding affinity to 1-palmitoyl-2-oleoyl-sn-glycero-3-phosphocholine small unilamellar vesicle in 40 mM phosphate buffer at pH 6.8 at 100 uM by Far-UV CD spectra analysis; format: physicochemical; conditions: pH 6.8, 100 µM
[3] = Induction of calcein leakage in 1-palmitoyl-2-oleoyl-sn-glycero-3-phosphocholine/1-palmitoyl- 2-oleoyl-sn-glycero-3-[phospho-rac-(1-glycerol)] (sodium salt) large unilamellar vesicle at 4 to 20 uM after 90 mins by fluorescence assay; format: physicochemical; conditions: 1.5 h
[4] = Binding affinity to 1-palmitoyl-2-oleoyl-sn-glycero-3-phosphocholine large unilamellar vesicle at 100 uM by isothermal titration calorimetry analysis; format: physicochemical
[5] = Binding affinity to SDS micelles by CD spectra analysis; format: physicochemical
Acinetobacter baumannii [6] = assay: Antimicrobial activity against Acinetobacter baumannii ATCC 19606; format: functional
Brucella melitensis = assay: Antimicrobial activity against Brucella melitensis 16M; format: functional
[7] = test system: Francisella tularensis subsp. tularensis SCHU S4; assay: Antimicrobial activity against Francisella tularensis SCHUS4; format: functional
Staphylococcus aureus [8] = assay: Antimicrobial activity against Staphylococcus aureus ATCC 33591; format: functional
Brucella abortus = assay: Antimicrobial activity against Brucella abortus 2308; format: functional
Burkholderia mallei = assay: Antimicrobial activity against Burkholderia mallei; format: functional
[9] = Binding affinity to 1-palmitoyl-2-oleoyl-sn-glycero-3-phosphocholine/1-palmitoyl- 2-oleoyl-sn-glycero-3-[phospho-rac-(1-glycerol)] (sodium salt) small unilamellar vesicle in 40 mM phosphate buffer at pH 6.8 at 100 uM by Far-UV CD spectra analysis; format: physicochemical; conditions: pH 6.8, 100 µM
[10] = Induction of calcein leakage in 1-palmitoyl-2-oleoyl-sn-glycero-3-phosphocholine large unilamellar vesicle at 4 to 20 uM after 90 mins by fluorescence assay; format: physicochemical; conditions: 1.5 h
[11] = test system: Burkholderia pseudomallei; assay: Antimicrobial activity against Burkholderia pseudomallei; format: functional
[12] = Induction of calcein leakage in 1-palmitoyl-2-oleoyl-sn-glycero-3-phosphocholine/1-palmitoyl- 2-oleoyl-sn-glycero-3-[phospho-rac-(1-glycerol)] (sodium salt) large unilamellar vesicle assessed as leakage constant after 90 mins by fluorescence assay; format: physicochemical; conditions: 1.5 h
Brucella suis = assay: Antimicrobial activity against Brucella suis 23444; format: functional
[13] = Binding affinity to DPC micelles by CD spectra analysis; format: physicochemical
[14] = Binding affinity to 1-palmitoyl-2-oleoyl-sn-glycero-3-phosphocholine/1-palmitoyl- 2-oleoyl-sn-glycero-3-[phospho-rac-(1-glycerol)] (sodium salt) large unilamellar vesicle in 40 mM phosphate buffer at pH 6.8 at 100 uM by Far-UV CD spectra analysis; format: physicochemical; conditions: pH 6.8, 100 µM
[15] = Binding affinity to 1-palmitoyl-2-oleoyl-sn-glycero-3-phosphocholine large unilamellar vesicle in 40 mM phosphate buffer at pH 6.8 at 100 uM by Far-UV CD spectra analysis; format: physicochemical; conditions: pH 6.8, 100 µM
[16] = Induction of calcein leakage in 1-palmitoyl-2-oleoyl-sn-glycero-3-phosphocholine large unilamellar vesicle assessed as leakage constant after 90 mins by fluorescence assay; format: physicochemical; conditions: 1.5 h
[17] = Binding affinity to 1-palmitoyl-2-oleoyl-sn-glycero-3-phosphocholine/1-palmitoyl- 2-oleoyl-sn-glycero-3-[phospho-rac-(1-glycerol)] (sodium salt) large unilamellar vesicle at 200 uM by isothermal titration calorimetry analysis; format: physicochemical
Bacillus anthracis = assay: Antimicrobial activity against Bacillus anthracis AMES; format: functional
Yersinia pestis = assay: Antimicrobial activity against Yersinia pestis CO92; format: functional
[18] = Binding affinity to 1-palmitoyl-2-oleoyl-sn-glycero-3-phosphocholine small unilamellar vesicle in 40 mM phosphate buffer at pH 6.8 at 75 uM by Far-UV CD spectra analysis; format: physicochemical; conditions: pH 6.8, 75 µM
Staphylococcus aureus [19] = assay: Antimicrobial activity against ME/GM/TC-resistant Staphylococcus aureus; format: functional
[20] = Binding affinity to 1-palmitoyl-2-oleoyl-sn-glycero-3-phosphocholine/1-palmitoyl- 2-oleoyl-sn-glycero-3-[phospho-rac-(1-glycerol)] (sodium salt) large unilamellar vesicle in 40 mM phosphate buffer at pH 6.8 at 75 uM by Far-UV CD spectra analysis; format: physicochemical; conditions: pH 6.8, 75 µM
Bacillus subtilis = assay: Antimicrobial activity against Bacillus subtilis; format: functional
[21] = Binding affinity to 1-palmitoyl-2-oleoyl-sn-glycero-3-phosphocholine large unilamellar vesicle at 200 uM by isothermal titration calorimetry analysis; format: physicochemical
Mycobacterium = assay: Antimicrobial activity against Mycobacterium ranae; format: functional
[22] = Binding affinity to 1-palmitoyl-2-oleoyl-sn-glycero-3-phosphocholine large unilamellar vesicle in 40 mM phosphate buffer at pH 6.8 at 75 uM by Far-UV CD spectra analysis; format: physicochemical; conditions: pH 6.8, 75 µM
[23] = Binding affinity to 1-palmitoyl-2-oleoyl-sn-glycero-3-phosphocholine/1-palmitoyl- 2-oleoyl-sn-glycero-3-[phospho-rac-(1-glycerol)] (sodium salt) small unilamellar vesicle in 40 mM phosphate buffer at pH 6.8 at 75 uM by Far-UV CD spectra analysis; format: physicochemical; conditions: pH 6.8, 75 µM
Salmonella typhimurium = assay: Antimicrobial activity against Salmonella typhimurium; format: functional, Salmonella enterica subsp. enterica serovar Typhimurium; conditions: Salmonella enterica

Row | SMILES | MIC (Acinetobacter baumannii [1]) [µM] | Activity [2] | Activity [3] | Activity [4] | Activity [5] | MIC (Acinetobacter baumannii [6]) [µM] | MIC (Brucella melitensis) [µM] | MIC [7] [µM] | MIC (Staphylococcus aureus [8]) [µM] | MIC (Brucella abortus) [µM] | MIC (Burkholderia mallei) [µM] | Activity [9] | MIC [11] [µM] | K [12] | MIC (Brucella suis) [µM] | Activity [13] | Activity [14] | Activity [15] | K [16] | Activity [17] | other results
1 | CC(=O)NCC(=O)N[C@@H](Cc1ccccc1)C(=O)N1CCc2ccccc2[C@H]1C(=O)N1C2CCCCC2C[C@H]1C(=O)NCC(=O)N[C@@H](CCCCN)C(=O)N1CCc2ccccc2[C@H]1C(=O)N1C2CCCCC2C[C@H]1C(=O)NCC(=O)N[C@@H](Cc1ccccc1)C(=O)N1CCc2ccccc2[C@H]1C(=O)N1C2CCCCC2C[C@H]1C(=O)NCC(=O)N[C@@H](CCCCN)C(=O)N1CCc2ccccc2[C@H]1C(=O)N[C@@H](CCCCN)C(=O)N[C@@H](CCCCN)C(=O)N[C@@H](CCCCN)C(N)=O (stereo partly drawn) (Ac-GF[Tiq1c(1S)][Oic(3aξ,7aξ)]GK[Tiq1c(1S)][Oic(3aξ,7aξ)]GF[Tiq1c(1S)][Oic(3aξ,7aξ)]GK[Tiq1c(1S)]KKK-NH2) | 3.4 (≈ 7.86 µg/mL) | Active | Active | Active | Active | 6.7 (≈ 15.5 µg/mL) | 54 (≈ 125 µg/mL) | 0.02 (≈ 0.0463 µg/mL) | 54 (≈ 125 µg/mL) | 27 (≈ 62.4 µg/mL) | 0.02 (≈ 0.0463 µg/mL) | Active | 0.02 (≈ 0.0463 µg/mL) | 0.075 | > 216 | Active | Active | Active | 0.014 | Active | Activity [10]: Active; MIC (Bacillus anthracis): 27 µM (≈ 62.4 µg/mL); MIC (Yersinia pestis): 27 µM (≈ 62.4 µg/mL)
2 | CC(=O)NCC(=O)N[C@@H](Cc1ccccc1)C(=O)N1CCc2ccccc2[C@H]1C(=O)N1C2CCCCC2C[C@H]1C(=O)NCC(=O)N[C@@H](CCCCN)C(=O)N1CCc2ccccc2[C@H]1C(=O)N1C2CCCCC2C[C@H]1C(=O)NCC(=O)N[C@@H](Cc1ccccc1)C(=O)N1CCc2ccccc2[C@H]1C(=O)N1C2CCCCC2C[C@H]1C(=O)NCC(=O)N[C@@H](CCCCN)C(=O)N1CCc2ccccc2[C@H]1C(=O)N[C@@H](CCCCN)C(=O)N[C@@H](CCCCN)C(=O)N[C@@H](CCCCN)C(=O)N[C@@H](CCCCN)C(N)=O (stereo partly drawn) (Ac-GF[Tiq1c(1S)][Oic(3aξ,7aξ)]GK[Tiq1c(1S)][Oic(3aξ,7aξ)]GF[Tiq1c(1S)][Oic(3aξ,7aξ)]GK[Tiq1c(1S)]KKKK-NH2) | 3.2 (≈ 7.81 µg/mL) |  | Not Active |  | Active | 3.2 (≈ 7.81 µg/mL) | 205 (≈ 500 µg/mL) | 100 (≈ 244 µg/mL) | 205 (≈ 500 µg/mL) | 205 (≈ 500 µg/mL) | 205 (≈ 500 µg/mL) |  | 205 (≈ 500 µg/mL) | 0.089 | 205 (≈ 500 µg/mL) | Active |  |  | 0.097 | Active | Activity [18]: Active; MIC (Staphylococcus aureus [19]): 3 µM (≈ 7.32 µg/mL); Activity [20]: Active; MIC (Bacillus subtilis): 1 µM (≈ 2.44 µg/mL); Activity [21]: Active; MIC (Mycobacterium): 10 µM (≈ 24.4 µg/mL); Activity [22]: Active; MIC (Bacillus anthracis): 12.8 µM (≈ 31.2 µg/mL); Activity [23]: Active; MIC (Salmonella typhimurium): 10 µM (≈ 24.4 µg/mL); MIC (Yersinia pestis): 205 µM (≈ 500 µg/mL)
3 | CC(=O)NCC(=O)N[C@@H](Cc1ccccc1)C(=O)N1CCc2ccccc2[C@H]1C(=O)N1C2CCCCC2C[C@H]1C(=O)NCC(=O)N[C@@H](CCCCN)C(=O)N1CCc2ccccc2[C@H]1C(=O)N1C2CCCCC2C[C@H]1C(=O)NCC(=O)N[C@@H](Cc1ccccc1)C(=O)N1CCc2ccccc2[C@H]1C(=O)N1C2CCCCC2C[C@H]1C(=O)NCC(=O)N[C@@H](CCCCN)C(=O)N1CCc2ccccc2[C@H]1C(=O)N[C@@H](CCCCN)C(=O)N[C@@H](CCCCN)C(=O)N[C@@H](CCCCN)C(=O)N[C@@H](CCCCN)C(=O)N[C@@H](CCCCN)C(N)=O (stereo partly drawn) (Ac-GF[Tiq1c(1S)][Oic(3aξ,7aξ)]GK[Tiq1c(1S)][Oic(3aξ,7aξ)]GF[Tiq1c(1S)][Oic(3aξ,7aξ)]GK[Tiq1c(1S)]KKKKK-NH2) |  | Active | Not Active | Active |  |  |  |  |  |  |  | Active |  | 0.073 |  |  | Active | Active | 0.0011 | Active | MIC (Staphylococcus aureus [19]): 3 µM (≈ 7.71 µg/mL); MIC (Bacillus subtilis): 1 µM (≈ 2.57 µg/mL); MIC (Mycobacterium): 3 µM (≈ 7.71 µg/mL); MIC (Salmonella typhimurium): 10 µM (≈ 25.7 µg/mL)
4 | CC(=O)N[C@@H](CCCCN)C(=O)N[C@@H](CCCCN)C(=O)N[C@@H](CCCCN)C(=O)N[C@@H](CCCCN)C(=O)NCC(=O)N[C@@H](Cc1ccccc1)C(=O)N1CCc2ccccc2[C@H]1C(=O)N1C2CCCCC2C[C@H]1C(=O)NCC(=O)N[C@@H](CCCCN)C(=O)N1CCc2ccccc2[C@H]1C(=O)N1C2CCCCC2C[C@H]1C(=O)NCC(=O)N[C@@H](Cc1ccccc1)C(=O)N1CCc2ccccc2[C@H]1C(=O)N1C2CCCCC2C[C@H]1C(=O)NCC(=O)N[C@@H](CCCCN)C(=O)N1CCc2ccccc2[C@H]1C(N)=O (stereo partly drawn) (Ac-KKKKGF[Tiq1c(1S)][Oic(3aξ,7aξ)]GK[Tiq1c(1S)][Oic(3aξ,7aξ)]GF[Tiq1c(1S)][Oic(3aξ,7aξ)]GK[Tiq1c(1S)]-NH2) | 12.8 (≈ 31.2 µg/mL) | Active | Active | Active | Active | 12.8 (≈ 31.2 µg/mL) | 51 (≈ 124 µg/mL) | 51 (≈ 124 µg/mL) | 102 (≈ 249 µg/mL) | 51 (≈ 124 µg/mL) | 204 (≈ 498 µg/mL) | Active | 204 (≈ 498 µg/mL) | 0.0085 | 25.6 (≈ 62.5 µg/mL) | Active | Active | Active | 0.57 | Active | MIC (Staphylococcus aureus [19]): 30 µM (≈ 73.2 µg/mL); Activity [10]: Active; MIC (Mycobacterium): 3 µM (≈ 7.32 µg/mL); MIC (Bacillus anthracis): 0.4 µM (≈ 0.976 µg/mL); MIC (Salmonella typhimurium): 100 µM (≈ 244 µg/mL); MIC (Yersinia pestis): 13.1 µM (≈ 32 µg/mL)
